Key:
Format in all cases: biochemical
[1] = target: T1, DNA methyltransferases 1 (DNMT1) (Homo sapiens, UniProt P26358); test: positive control in radiometric DNMT1 assay; […] inhibition at […]
[2] = target: DNMT3b (Homo sapiens, UniProt Q9UBC3); test: radiometric methyltransferase assay with recombinant enzyme, Lambda DNA substrate and 3H-SAM
[3] = target: DNMT3a (Homo sapiens, UniProt Q9Y6K1); test: as above
[4] = target: T1, DNA methyltransferases 1 (DNMT1); test: radiometric methyltransferase assay with recombinant enzyme, poly(dI-dC) and 3H-SAM; activation at low, inhibition at higher concentration (IC50 […])

T1 sequence (P26358 whole entry): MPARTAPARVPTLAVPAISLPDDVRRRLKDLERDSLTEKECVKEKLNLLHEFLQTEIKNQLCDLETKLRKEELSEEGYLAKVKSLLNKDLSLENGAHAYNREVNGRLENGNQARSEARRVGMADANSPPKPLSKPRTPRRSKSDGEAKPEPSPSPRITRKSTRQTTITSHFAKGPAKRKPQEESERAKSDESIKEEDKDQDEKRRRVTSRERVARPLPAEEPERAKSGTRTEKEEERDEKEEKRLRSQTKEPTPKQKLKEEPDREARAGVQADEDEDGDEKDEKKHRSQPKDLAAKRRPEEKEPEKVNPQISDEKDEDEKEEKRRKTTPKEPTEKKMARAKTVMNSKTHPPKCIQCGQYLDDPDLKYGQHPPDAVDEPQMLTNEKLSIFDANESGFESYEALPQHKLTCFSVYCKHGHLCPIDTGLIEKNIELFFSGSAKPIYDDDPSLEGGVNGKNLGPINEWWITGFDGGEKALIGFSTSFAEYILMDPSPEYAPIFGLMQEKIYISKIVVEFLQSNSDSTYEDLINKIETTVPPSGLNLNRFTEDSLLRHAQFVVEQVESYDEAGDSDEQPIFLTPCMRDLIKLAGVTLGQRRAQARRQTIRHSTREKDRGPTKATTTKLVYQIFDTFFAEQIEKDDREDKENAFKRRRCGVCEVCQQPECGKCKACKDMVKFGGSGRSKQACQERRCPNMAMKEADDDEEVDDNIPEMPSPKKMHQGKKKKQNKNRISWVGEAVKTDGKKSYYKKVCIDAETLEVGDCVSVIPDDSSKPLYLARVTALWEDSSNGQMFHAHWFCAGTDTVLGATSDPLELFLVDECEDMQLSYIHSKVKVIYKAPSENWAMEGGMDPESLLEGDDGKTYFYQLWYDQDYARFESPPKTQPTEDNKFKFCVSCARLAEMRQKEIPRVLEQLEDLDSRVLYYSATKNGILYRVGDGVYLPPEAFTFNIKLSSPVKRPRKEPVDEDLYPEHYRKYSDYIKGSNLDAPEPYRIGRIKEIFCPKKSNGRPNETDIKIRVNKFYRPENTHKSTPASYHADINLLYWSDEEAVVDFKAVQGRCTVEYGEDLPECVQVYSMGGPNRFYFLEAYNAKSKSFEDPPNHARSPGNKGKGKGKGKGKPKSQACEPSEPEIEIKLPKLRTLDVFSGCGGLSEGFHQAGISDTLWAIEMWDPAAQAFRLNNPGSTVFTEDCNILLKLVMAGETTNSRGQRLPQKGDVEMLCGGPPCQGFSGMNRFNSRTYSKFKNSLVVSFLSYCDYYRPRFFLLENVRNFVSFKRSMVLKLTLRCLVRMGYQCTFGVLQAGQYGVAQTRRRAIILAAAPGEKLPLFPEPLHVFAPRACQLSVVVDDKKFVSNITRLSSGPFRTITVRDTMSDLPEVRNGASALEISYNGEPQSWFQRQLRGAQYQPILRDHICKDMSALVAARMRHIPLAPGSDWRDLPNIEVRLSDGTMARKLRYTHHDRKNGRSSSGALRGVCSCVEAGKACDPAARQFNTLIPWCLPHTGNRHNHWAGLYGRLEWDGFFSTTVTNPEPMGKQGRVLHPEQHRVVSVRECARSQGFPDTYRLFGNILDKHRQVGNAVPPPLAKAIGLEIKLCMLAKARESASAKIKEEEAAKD
DNMT3a, sequence (Q9Y6K1 whole entry, looked up): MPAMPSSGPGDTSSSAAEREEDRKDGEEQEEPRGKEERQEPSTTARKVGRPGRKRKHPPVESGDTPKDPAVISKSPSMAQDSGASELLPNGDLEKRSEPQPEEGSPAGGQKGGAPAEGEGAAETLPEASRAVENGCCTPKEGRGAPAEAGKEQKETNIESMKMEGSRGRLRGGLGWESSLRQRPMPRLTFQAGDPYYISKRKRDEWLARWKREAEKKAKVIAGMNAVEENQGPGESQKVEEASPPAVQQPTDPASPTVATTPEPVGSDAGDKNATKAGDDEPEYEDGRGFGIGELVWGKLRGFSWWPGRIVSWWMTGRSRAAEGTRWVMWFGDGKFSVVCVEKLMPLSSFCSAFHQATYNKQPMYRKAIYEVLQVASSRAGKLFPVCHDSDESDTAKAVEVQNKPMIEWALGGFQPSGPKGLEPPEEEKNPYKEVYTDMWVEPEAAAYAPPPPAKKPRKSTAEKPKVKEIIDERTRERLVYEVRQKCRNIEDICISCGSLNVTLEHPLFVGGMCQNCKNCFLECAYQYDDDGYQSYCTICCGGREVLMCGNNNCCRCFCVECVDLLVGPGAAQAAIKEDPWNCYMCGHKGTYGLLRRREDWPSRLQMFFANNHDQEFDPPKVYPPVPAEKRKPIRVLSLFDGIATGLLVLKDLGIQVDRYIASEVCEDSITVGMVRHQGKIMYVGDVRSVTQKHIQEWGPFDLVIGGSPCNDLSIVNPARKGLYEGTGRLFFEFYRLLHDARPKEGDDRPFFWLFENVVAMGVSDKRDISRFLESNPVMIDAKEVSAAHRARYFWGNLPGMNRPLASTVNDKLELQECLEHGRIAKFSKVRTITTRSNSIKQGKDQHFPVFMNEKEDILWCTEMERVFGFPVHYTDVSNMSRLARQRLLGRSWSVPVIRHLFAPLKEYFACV

Nc1ncnc2c1ncn2[C@@H]1O[C@H](CSCC[C@H](N)C(=O)O)[C@@H](O)[C@H]1O [S-adenosyl homocysteine]
inhibition at 1 µM [1]: 95%

C[C@H](CCC[C@@H](C)[C@H]1CC[C@H]2[C@@H]3CC=C4C[C@@H](O)CC[C@]4(C)[C@H]3CC[C@]12C)C(=O)O [CA, Cholestenoic acid]
IC50 [2]: 4.89 µM
IC50 [3]: 8.41 µM
EC50 [4]: 1.99 µM
